Tested on: Plasmodium falciparum
Assay: GSK_TCMDC: Inhibition of Plasmodium falciparum 3D7 in whole erythrocytes, using parasite LDH activity as an index of growth.
Assay type: functional, organism-based
Details: Plasmodium falciparum, 3D7

Compound: O=C(Cn1c(CCc2cccc(F)c2F)nc(=O)c2cccnc21)N(Cc1ccc(-c2ccc(C(F)(F)F)cc2)cc1)C1CCN(C2CCOCC2)CC1
- XC50: 828 nM

Compound: CCN1CCC(N(Cc2ccc(-c3ccc(C(F)(F)F)cc3)cc2)C(=O)Cn2c(CCc3cccc(F)c3F)cc(=O)c3ccccc32)CC1
- XC50: 832 nM

Compound: CCNC(C)(C)CN(Cc1ccc(-c2ccc(C(F)(F)F)cc2)cc1)C(=O)Cn1c(SCc2ccc(F)cc2)nc(=O)c2c1CCC2
- XC50: 991 nM

Compound: CCN1CCN(c2ccc(Nc3c4ccccc4nc4ccccc34)cc2)CC1
- XC50: 718 nM

Compound: CCN(CC)Cc1cc(Nc2ccnc3cc(Cl)ccc23)ccc1O
- XC50: 160 nM

Compound: Cc1[nH]c(C)c(-c2ccc(-c3ccc(Cl)cc3)cc2)c(=O)c1Cl
- XC50: 215 nM

Compound: CC(C)(C)c1ccc(CN2CCC(NC(=O)c3ccc(-c4cccc(F)c4)s3)CC2)cc1
- XC50: 1090 nM

Compound: O=c1c2ccc(F)cc2sn1-c1ccc(Cl)cc1
- XC50: 1150 nM

Compound: CC(C)(C)CN1C(=O)C(c2ccccc2)(c2ccccc2)N=C1N
- XC50: 515 nM

Compound: COc1cccc(C=NNc2cc(C)nc3c(OC)cccc23)c1
- XC50: 578 nM

Compound: CCn1c(C2CCN(CCC3CCN(C(=O)/C=C/c4ccc(Cl)c(Cl)c4)CC3)CC2)nc2ccccc21
- XC50: 1080 nM

Compound: COc1cc(NC(=O)Nc2cccc3ccccc23)c(OC)cc1Cl
- XC50: 484 nM

Compound: COC1(C)Oc2ccc3cccc([N+](=O)[O-])c3c2C1=O (centres undefined)
- XC50: 635 nM

Compound: Cc1cc(=O)c2cc(-c3ccc(OC(F)(F)F)cc3)ccc2[nH]1
- XC50: 476 nM

Compound: COc1ccc(O)cc1/C=N/Nc1ccnc2cc(Cl)ccc12
- XC50: 544 nM

Compound: O=c1[nH]c2c(cc1CNC1CCCCC1)c(-c1cccc(F)c1)nn2-c1ccccc1
- XC50: 945 nM

Compound: O=c1cc(NCCCCNCc2cccc(Br)c2)[nH]c2ccccc12
- XC50: 729 nM

Compound: CN(C)c1ccc(C2(c3ccccc3)N=C(N)N(CCCc3ccccc3)C2=O)cc1 (centres undefined)
- XC50: 971 nM

Compound: CN1CCN(CCCN(Cc2cccc(-c3ccc(CNCc4ccc5c(c4)OCO5)cc3)c2)C(=O)Nc2ccccc2)CC1
- XC50: 681 nM

Compound: CC(CN1CCN(C)CC1)C(=O)Nc1ccc(-c2ccc(-c3nc4ccccc4[nH]3)cc2)cc1 (centres undefined)
- XC50: 954 nM

Compound: CC(C)CNC(=O)c1cncc(-c2ccc(CNC3Cc4ccccc4C3)cc2)c1
- XC50: 698 nM

Compound: Cc1ccc(NC(=O)c2ccc(Cl)cc2)cc1-c1ccc(C(=O)Nc2ccncc2)cc1
- XC50: 779 nM

Compound: c1ccc2cc3c(Nc4ccc(N5CCCCC5)cc4)ccnc3cc2c1
- XC50: 739 nM

Compound: O=C(Cc1ccc(NC(=O)c2ccc(O)c(-c3ccc(Cl)c(Cl)c3)c2)cc1)NCCc1ccc(Cl)c(Cl)c1
- XC50: 717 nM

Compound: c1ccc(COc2ccc(Nc3ncnc4ccc(-c5ccc(CN6CCSCC6)o5)cc34)cc2)cc1
- XC50: 827 nM

Compound: CCCCCCCc1c(C)nc2ccccc2c1O
- XC50: 206 nM

Compound: CC(=O)c1ccc(-c2cccc3c(CC(=O)Nc4ccc5nccc(N6CCN(C)CC6)c5c4)cccc23)cc1
- XC50: 498 nM

Compound: Fc1ccc2[nH]c(-c3cccc(-c4ccc(CN5CCC(CCN6CCCCC6)CC5)cc4)c3)nc2c1
- XC50: 142 nM

Compound: O=C(NCC(c1ccc(C(F)(F)F)cc1)N1CCCC1)c1cc(-c2ccncc2)c(-c2cccc(O)c2)o1 (centres undefined)
- XC50: 1060 nM

Compound: N#Cc1ccc(NC2(C(=O)N3CCN(c4cccc(Cl)c4)CC3)CC2)c2ccccc12
- XC50: 1150 nM

Compound: COc1cccc(-c2cnc(N)c(-c3nc4ccc(F)cc4[nH]3)c2)c1
- XC50: 850 nM

Compound: O=C(Nc1cccc(Cl)c1)c1cnc(N2CCN(c3ccncc3)CC2)c(Cl)c1
- XC50: 963 nM

Compound: N=C(N)Nc1nc(-c2ccc(NC(=N)N3CCC[C@H]3CN3CCCC3)cc2)cs1
- XC50: 1110 nM

Compound: Oc1ccc2nc(NCCCc3ccccc3)nc(NCCCc3ccccc3)c2c1
- XC50: 398 nM

Compound: O=C(NCCN1CCCCC1)c1ccc(CNC(=O)c2ccc(O)c(-c3cccc(C(F)(F)F)c3)c2)cc1
- XC50: 886 nM

Compound: O=C(/C=C/c1ccc(Cl)c(Cl)c1)NCCCCCN1CCC(NC(=O)Nc2ccc(F)c(F)c2)CC1
- XC50: 842 nM

Compound: CCCc1cc(Cc2cnc(N)nc2N)cc2c1OC(C)(C)C2
- XC50: 1080 nM

Compound: O=C(Nc1ccc(-c2ccc(-c3nc4ccccc4[nH]3)s2)cc1)Nc1ccc(F)c(F)c1F
- XC50: 194 nM

Compound: Fc1ccc2[nH]c(-c3cccc(-c4ccc(CN5CCCCC5)cc4)c3)nc2c1
- XC50: 163 nM

Compound: Oc1ccccc1CN1CCCC(COC(c2ccc(F)cc2)c2ccc(F)cc2)C1 (centres undefined)
- XC50: 775 nM

Compound: CCCNC(=O)c1ccnc(-c2ccc(CNC3Cc4ccccc4C3)cc2)c1
- XC50: 940 nM

Compound: O=C(Nc1ccc(F)cc1F)NC1CCN(CCCCCNC(=O)C2CC2c2ccc(Cl)c(Cl)c2)CC1 (centres undefined)
- XC50: 496 nM

Compound: COc1ccc(CNCc2ccccc2)cc1-c1ccc(S(=O)(=O)NCCN2CCCC2)s1
- XC50: 674 nM

Compound: COc1ccccc1CCNc1nc(C)cc(N[C@@H](CC(C)C)C(=O)Nc2ccccc2)n1
- XC50: 1280 nM

Compound: COc1cc(CN/C(=N/c2ccc(-c3ccccc3)cc2)Nc2ccc(C#N)cc2O)cc(OC)c1
- XC50: 718 nM

Compound: COc1cc2c(C3CCN(CC4CCN(C(=O)/C=C/c5ccc(Cl)c(Cl)c5)CC4)CC3)c[nH]c2cn1
- XC50: 730 nM

Compound: CC(C)(C(=O)Nc1ccc(C2CCC(NCC3CC3)CC2)c(Cl)c1)c1ccc(C(F)(F)F)cc1 (centres undefined)
- XC50: 965 nM

Compound: CCCN(CCC)C(=O)c1cc(C(=O)N[C@@H](Cc2ccccc2)[C@H](O)CNC(C)(C)c2cccc(C(F)(F)F)c2)cc(N2CCCCS2(=O)=O)c1
- XC50: 36.2 nM

Compound: CCC1CN2CCc3c([nH]c4ccccc34)C2CC1CC1NCCc2cc(OC)c(OC)cc21 (centres undefined)
- XC50: 836 nM

Compound: O=C(C=Cc1ccc(Cl)c(Cl)c1)NCCCCCN1CCC(CCNC(=O)c2cccc3ccccc23)CC1
- XC50: 1590 nM

Compound: CCCc1cc(Cc2cnc(N)nc2N)cc2c1OC(C)C2C (centres undefined)
- XC50: 673 nM

Compound: O=C(NCC1CCC(CNCCCc2ccccc2)CC1)c1cc(Cl)cc(Cl)c1 (centres undefined)
- XC50: 846 nM

Compound: Fc1ccc2[nH]c(-c3ccc(-c4ccc(CN5CCN(c6cnccn6)CC5)cc4)s3)nc2c1
- XC50: 617 nM

Compound: CCCNCc1ccc(-c2ccc(CN(Cc3ccc4c(c3)OCO4)C(=O)Cc3cccnc3)cc2)nc1
- XC50: 862 nM

Compound: CC(C)CNC(=O)c1cncc(-c2ccc(CN(C)C3CCN(C)CC3)cc2)c1
- XC50: 878 nM

Compound: OC(CNC1CCCCC1)Cn1c2ccccc2c2ccccc21 (centres undefined)
- XC50: 991 nM

Compound: CCOc1ccc(Cc2c(C)nc3nc(N)nc(N)c3c2C)cc1
- XC50: 1060 nM

Compound: COc1ccc(Oc2ccc(-c3c(C)[nH]c(C)c(Cl)c3=O)cc2)cc1
- XC50: 135 nM

Compound: NS(=O)(=O)c1ccccc1Nc1nc(Nc2ccc(N3CCOCC3)cc2)nc2c1CCC2
- XC50: 667 nM

Compound: CC(C)(C)c1ccc2[nH]c(-c3ccc(C(=O)NC4CCN(Cc5ccccc5)CC4)s3)nc2c1
- XC50: 359 nM

Compound: CC(=O)Nc1ccc(OCCCCCOc2ccc(NC(C)=O)cc2Cl)c(Cl)c1
- XC50: 833 nM

Compound: COc1cccc(C(=O)Nc2sc3c(c2C(N)=O)CCCC3)c1OC
- XC50: 932 nM

Compound: Clc1ccc(CNCCCCCCCNCc2ccc(Cl)c(Cl)c2)cc1Cl
- XC50: 372 nM

Compound: Cc1cccc2nc(-c3ccc(-c4ccc(CNC(C)C)cc4)cc3)[nH]c12
- XC50: 676 nM

Compound: COc1cccc2cc(C(=O)N[C@@H](CC(C)C)C(=O)N[C@H](/C=N/NC(=O)Cc3cccnc3)CCc3ccccc3)oc12
- XC50: 951 nM

Compound: Cc1c(CCNC(=O)CCCN2CC(C)CC(C)C2)c2ccccc2n1C (centres undefined)
- XC50: 1270 nM

Compound: COc1cccc(C2=CC(c3ccccc3)n3ncc(C(=O)Nc4ccc(Cl)cc4)c3N2)c1 (centres undefined)
- XC50: 1060 nM

Compound: CCCNc1nc(NCc2c(C)cccc2C)nc(NC(C)(C)C)n1
- XC50: 862 nM

Compound: CCCCN1CC[C@@H](CCC(O)c2cc(OCCC)nc3ccc(OC)cc23)[C@@H](CC)C1 (some centres undefined)
- XC50: 356 nM

Compound: CC(C)c1ccc(Nc2nc(NCCc3c[nH]cn3)nc(NCc3ccccc3)n2)cc1
- XC50: 687 nM

Compound: Cn1ncc2c3c(CCN4CCC(NCc5cc6c(cn5)OCCO6)CC4)c(Cl)cnc3ccc21
- XC50: 775 nM

Compound: Cc1cc(N[C@@H](Cc2ccccc2)C(=O)NCCCOC(C)C)nc(NCC2CCCCC2)n1
- XC50: 875 nM

Compound: Cc1ccc(NC(=O)Nc2ccc(S(=O)(=O)c3ccc(NC(=O)Nc4ccc(C)c(Cl)c4)cc3)cc2)cc1Cl
- XC50: 754 nM

Compound: Cc1cc(CNCCCCCCNCc2ccc(-c3ccccc3)cc2)ccc1O
- XC50: 897 nM

Compound: Cc1[nH]cnc1CSCCN/C(=N\C#N)NCCCCCCCCN/C(=N/C#N)NCCSCc1nc[nH]c1C
- XC50: 1270 nM

Compound: CCOCc1cnc(C)nc1CNC(=O)c1c(C)[nH]c2ccc(C)cc12
- XC50: 1010 nM

Compound: COc1cccc(NC(=O)[C@H](C)n2c(=O)[nH]c3ccccc3c2=O)c1
- XC50: 764 nM

Compound: O=C(Nc1ccc(S(=O)(=O)N2CCCC2)cc1)c1cc(-c2cccnc2)nc2ccc(Cl)cc12
- XC50: 300 nM

Compound: O=S(=O)(NC1=NCCC1)c1cccc(Nc2nc(C(F)(F)F)nc3ccccc23)c1
- XC50: 945 nM

Compound: Cc1ccc(CCC(C)NCC(O)c2cccc(Cl)c2)cc1 (centres undefined)
- XC50: 804 nM

Compound: CN1CCN(c2nsc3ccc(-c4ccc(NC(=O)Nc5cc(C(F)(F)F)ccc5F)cc4)cc23)CC1
- XC50: 245 nM

Compound: COc1cccc(NC(=O)Nc2ccc(C)c(-c3ccc(C(=O)Nc4ccncc4)cc3)c2)c1
- XC50: 520 nM

Compound: Cc1nc(C)c(-c2ccc(C(=O)c3ccc(Cl)cc3)cc2)c(O)c1Br
- XC50: 810 nM

Compound: COc1c(C2CCN(CCCCNC(=O)c3cccc(-c4ccc(C(F)(F)F)cc4)c3)CC2)ccc2c1CCCC2
- XC50: 777 nM

Compound: Cc1cccc2nc(-c3cccc(-c4cccc(NC(=O)c5csnn5)c4)c3)[nH]c12
- XC50: 304 nM

Compound: O=C(CNc1ccc(Cl)c(S(=O)(=O)N2CCCC2)c1)Nc1ccc(Br)cc1F
- XC50: 321 nM

Compound: CC(C)CNCc1cccc(-c2ccccc2CNC2CCN(Cc3ccccc3)CC2)c1
- XC50: 579 nM

Compound: CN1CCCC(OC(=O)c2ccccc2)C1 (centres undefined)
- XC50: 756 nM

Compound: Cc1cc(NC(=O)NCCN2CCC(NS(=O)(=O)c3ccccc3F)CC2)c2ccccc2n1
- XC50: 949 nM

Compound: COc1ccccc1NC(=O)NC1CCN(CCCCCNC(=O)/C=C/c2ccc(Cl)c(Cl)c2)CC1
- XC50: 746 nM

Compound: Cc1ccc(CNC(=O)[C@H](CC(C)C)Nc2cc(C)nc(NCc3ccccc3C)n2)cc1
- XC50: 952 nM

Compound: CCCN(Cc1nnc(-c2cccs2)o1)C(=O)CSc1nnnn1-c1cc(C)cc(C)c1
- XC50: 500 nM

Compound: Cc1ccccc1CN1CCCN(Cc2ccc(C(=O)Nc3ccc(Cl)cc3)cc2)CC1
- XC50: 944 nM

Compound: Cc1ccc2c(O)c([N+](=O)[O-])c(O)nc2c1
- XC50: 422 nM

Compound: CC(C)CCNc1nc(NCCCc2ccccc2)c2cc(O)ccc2n1
- XC50: 166 nM

Compound: CN1CCC(Oc2ccc(CN3CC[C@H](NC(=O)c4ccc(Cl)c(Cl)c4)C3)c3ccccc23)C1 (some centres undefined)
- XC50: 876 nM

Compound: CCc1ccc(NC(=O)c2ccc(CN3CCCN(Cc4ccc(C)s4)CC3)cc2)cc1
- XC50: 1150 nM

Compound: COc1ccc(O)cc1Cc1cnc2nc(N)nc(N)c2c1C
- XC50: 8.25 nM

Compound: Nc1nc(N)c2cc(Sc3ccc4ccccc4c3)ccc2n1
- XC50: 17.1 nM
